Assay results published in US8791132B2, “Compounds and methods for treatment of hypertension” (Medivation Technologies, Inc., priority 2011, dated 2014).
Where “and” joins values, the source holds several entries; their conditions need not be identical. Equal entries are not always repeated. Where two headings read alike, the source gives them in different places. One block for each compound: values may come before it.

How the values were obtained:
[1] = biological target: T1, human recombinant adrenergic α2B receptor (Homo sapiens, UniProt P18089); assay: Radioligand binding, adrenergic α2B ([3H]Rauwolscine); details: for Percentage inhibition of ligand binding, Adrenergic α2B / Percentage inhibition of ligand binding, Adrenergic α2B (0.03 μM): 0.03 µM
T1 construct: expressed in transfected cells; host or cells: CHO-K1
T1 sequence (P18089 1-450): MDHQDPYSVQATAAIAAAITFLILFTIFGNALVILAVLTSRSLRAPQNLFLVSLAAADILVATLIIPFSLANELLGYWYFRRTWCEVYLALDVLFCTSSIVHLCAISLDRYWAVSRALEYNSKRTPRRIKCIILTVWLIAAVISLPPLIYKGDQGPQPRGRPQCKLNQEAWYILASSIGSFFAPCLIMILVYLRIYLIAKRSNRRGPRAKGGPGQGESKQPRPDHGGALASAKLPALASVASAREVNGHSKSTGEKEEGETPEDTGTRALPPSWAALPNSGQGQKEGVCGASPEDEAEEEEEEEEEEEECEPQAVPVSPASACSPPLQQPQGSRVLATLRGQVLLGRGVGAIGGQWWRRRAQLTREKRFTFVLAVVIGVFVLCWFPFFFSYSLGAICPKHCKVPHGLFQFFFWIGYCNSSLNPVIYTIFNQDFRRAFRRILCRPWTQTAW
How it was run: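 Receptor expressed in CHO-K1 cells, assayed in 50 mM Tris-HCl pH 7.4 with 12.5 mM MgCl2, 1 mM EDTA and 0.2% BSA. Compounds were incubated with 2.5 nM [3H]Rauwolscine for 60 min at 25° C; 10 μM Prazosin defined non-specific binding. Filter counting gave percent inhibition of specific binding.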

[2] = biological target: T2, rat adrenergic α1B receptor (Rattus norvegicus, UniProt P15823); assay: Radioligand binding, adrenergic α1B ([3H]Prazosin); details: for Percentage inhibition of ligand binding, Adrenergic α1B (0.1 μM) / Percentage inhibition of ligand binding, Adrenergic α1B: 0.1 µM
T2 construct: rat adrenergic α1B receptor obtained from Wistar Rat liver; from tissue; host or cells: Wistar rat liver
T2 sequence (P15823 1-515): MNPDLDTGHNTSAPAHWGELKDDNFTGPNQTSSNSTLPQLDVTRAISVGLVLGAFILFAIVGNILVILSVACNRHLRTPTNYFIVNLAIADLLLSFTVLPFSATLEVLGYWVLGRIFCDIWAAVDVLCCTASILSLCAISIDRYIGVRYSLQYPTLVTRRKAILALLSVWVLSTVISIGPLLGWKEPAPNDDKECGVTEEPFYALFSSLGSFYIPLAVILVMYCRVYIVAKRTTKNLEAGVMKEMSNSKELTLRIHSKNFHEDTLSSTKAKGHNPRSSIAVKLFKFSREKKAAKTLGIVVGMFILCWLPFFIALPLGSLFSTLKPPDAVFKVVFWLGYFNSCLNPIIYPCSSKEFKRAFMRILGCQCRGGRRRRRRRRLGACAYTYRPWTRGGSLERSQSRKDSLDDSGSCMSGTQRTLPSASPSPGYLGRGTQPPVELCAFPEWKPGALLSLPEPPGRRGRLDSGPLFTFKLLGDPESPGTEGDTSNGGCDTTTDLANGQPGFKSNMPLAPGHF
How it was run: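 Filter binding with Wistar rat liver α1B preparation: test compound plus 0.25 nM [3H]prazosin, 1 h at 25° C in modified Tris-HCl buffer pH 7.4.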

[3] = biological target: T3, human recombinant adrenergic α2A receptor (Homo sapiens, UniProt P08913); assay: Radioligand binding, adrenergic α2A ([3H]MK-912); details: for Percentage inhibition of ligand binding, Adrenergic α2A (0.1 μM) / Percentage inhibition of ligand binding, Adrenergic α2A: 0.1 µM
T3 construct: expressed in transfected cells; host or cells: insect Sf9 cells
T3 sequence (P08913 1-465): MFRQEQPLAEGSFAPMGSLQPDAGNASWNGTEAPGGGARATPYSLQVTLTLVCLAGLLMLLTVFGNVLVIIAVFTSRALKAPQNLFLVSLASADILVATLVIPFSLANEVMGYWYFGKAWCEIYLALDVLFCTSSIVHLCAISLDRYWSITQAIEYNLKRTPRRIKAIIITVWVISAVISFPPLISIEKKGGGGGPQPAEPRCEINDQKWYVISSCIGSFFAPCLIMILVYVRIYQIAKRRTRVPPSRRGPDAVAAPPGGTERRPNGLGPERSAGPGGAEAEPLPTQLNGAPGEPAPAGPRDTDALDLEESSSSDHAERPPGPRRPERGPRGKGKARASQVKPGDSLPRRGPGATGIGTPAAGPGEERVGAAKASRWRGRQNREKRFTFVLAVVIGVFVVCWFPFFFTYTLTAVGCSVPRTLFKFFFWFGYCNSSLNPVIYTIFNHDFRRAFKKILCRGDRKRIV
How it was run: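 Receptor expressed in insect Sf9 cells, assayed in 50 mM Tris-HCl pH 7.4 with 12.5 mM MgCl2 and 2 mM EDTA. Compounds incubated with 1 nM [3H]MK-912 for 60 min at 25 °C; nonspecific binding defined with 10 μM WB-4101. Filter-bound radioactivity counted; values are percent inhibition of specific binding.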

[4] = compound at 0.03 μM, [3H]Rauwolscine, repeat assays, each datapoint shown
[5] = compound at 0.1 μM, [3H]Prazosin, repeat assays, each datapoint shown, read-out: Percentage inhibition of ligand binding, Adrenergic α1B
[6] = compound at 0.1 μM, [3H]MK-912, repeat assays, each datapoint shown, read-out: Percentage inhibition of ligand binding, Adrenergic α2A
[7] = compound at 0.03 μM, [3H]Rauwolscine, repeat datapoints each shown
[8] = compound at 0.1 μM, [3H]Prazosin, repeat datapoints each shown
[9] = compound at 0.1 μM, [3H]MK-912, repeat datapoints each shown
[10] = compound at 0.1 μM, [3H]MK-912, repeat assays, each datapoint shown
[11] = compound at 0.1 μM, [3H]Prazosin, repeat assays, each datapoint shown
[12] = read-out: Percentage inhibition of ligand binding, Adrenergic α1B (0.1 μM), compound at 0.1 μM, [3H]Prazosin, repeat datapoints each shown
[13] = read-out: Percentage inhibition of ligand binding, Adrenergic α2B (0.03 μM), compound at 0.03 μM, [3H]Rauwolscine, repeat datapoints each shown
[14] = read-out: Percentage inhibition of ligand binding, Adrenergic α2A (0.1 μM), compound at 0.1 μM, [3H]MK-912, repeat datapoints each shown

Percentage inhibition of ligand binding, Adrenergic α2B [1, 4]: 58%
inhibition at 0.1 µM [2, 5]: 16%
inhibition at 0.1 µM [3, 6]: 12%
Structure (SMILES): CN1CCc2c(c3cccc(Br)c3n2CC(O)c2ccncc2)C1 (single isomer, unassigned) [48a]

Percentage inhibition of ligand binding, Adrenergic α2B (0.03 μM) [1, 7]: 29%
Percentage inhibition of ligand binding, Adrenergic α1B (0.1 μM) [2, 8]: 10%
Percentage inhibition of ligand binding, Adrenergic α2A (0.1 μM) [3, 9]: 8%
Structure (SMILES): CC(O)(Cn1c2c(c3cc(Cl)cnc31)C1CCCN1CC2)c1cccnc1 (single isomer, unassigned) [IV-210b]

inhibition at 0.03 µM ([1]; compound at 0.03 μM, [3H]Rauwolscine, repeat assays, each datapoint shown, read-out: Percentage inhibition of ligand binding, Adrenergic α2B): 29%
inhibition at 0.1 µM [2, 5]: 15%
Percentage inhibition of ligand binding, Adrenergic α2A [3, 10]: 3%
Structure (SMILES): CC(O)(Cn1c2c(c3cc(Cl)ccc31)CNCC2)c1ccncn1 (single isomer, unassigned) [42a, 1-(8-chloro-1,2,3,4-tetrahydro-pyrido[4,3-b]indol-5-yl)-2-pyrimidin-4-yl-propan-2-ol]

Percentage inhibition of ligand binding, Adrenergic α2B [1, 4]: 75%
inhibition at 0.1 µM [2, 5]: 75%
Percentage inhibition of ligand binding, Adrenergic α2A [3, 10]: 21%
Structure (SMILES): Cc1ccc2c(c1)c1c(n2CC(C)(O)c2ccncc2)CN(C)CC1 (single isomer, unassigned) [19a, 1-(2,6-dimethyl-1,2,3,4-tetrahydro-β-carbolin-9-yl)-2-pyridin-4-yl-propan-2-ol]

Percentage inhibition of ligand binding, Adrenergic α2B [1, 4]: 50%
Percentage inhibition of ligand binding, Adrenergic α1B [2, 11]: 10%
Percentage inhibition of ligand binding, Adrenergic α2A [3, 10]: 10%
Structure (SMILES): Cc1ccc2c(c1)c1c(n2CC(O)c2cccnc2)CCNC1 (single isomer, unassigned) [9b, 2-(8-methyl-1,2,3,4-tetrahydro-pyrido[4,3-b]indol-5-yl)-1-pyridin-3-yl-ethanol]

Percentage inhibition of ligand binding, Adrenergic α2B (0.03 μM) [1, 7]: 27%
inhibition at 0.1 µM [2, 12]: 11%
Percentage inhibition of ligand binding, Adrenergic α2A (0.1 μM) [3, 9]: 1%
Structure (SMILES): Cc1ccc2c(c1)c1c(n2CC(C)(O)c2cccnc2)C(O)CN(C)C1 (single isomer, unassigned) [II-151a]

inhibition at 0.03 µM [1, 13]: 8%
inhibition at 0.1 µM [2, 12]: 9%
inhibition at 0.1 µM [3, 14]: -1%
Structure (SMILES): Cc1ccc2c(c1)c1c(n2CC(CO)c2ccncc2)CCN(C)C1 (stereo not drawn) [II-225]

inhibition at 0.03 µM [1, 13]: 11%
inhibition at 0.1 µM [2, 12]: -3%
inhibition at 0.1 µM [3, 14]: 12%
Structure (SMILES): CN1CCc2c(c3cc(CO)ccc3n2CC(C)(F)c2cccnc2)C1 (stereo not drawn) [II-213, [5-(2-fluoro-2-pyridin-3-yl-propyl)-2-methyl-2,3,4,5-tetrahydro-1H-pyrido[4,3-b]indol-8-yl]-methanol]

Percentage inhibition of ligand binding, Adrenergic α2B [1, 4]: 96%
Percentage inhibition of ligand binding, Adrenergic α1B [2, 11]: 41%
inhibition at 0.1 µM [3, 6]: 28%
Structure (SMILES): CN1CCc2c(n(CC(C)(O)c3cccnc3)c3ccc(Cl)cc23)C1 (single isomer, unassigned) [28a]

Percentage inhibition of ligand binding, Adrenergic α2B ([1]; 0.03 μM compound): 65%
Percentage inhibition of ligand binding, Adrenergic α1B ([2]; 0.1 μM compound): 11%
Percentage inhibition of ligand binding, Adrenergic α2A ([3]; 0.1 μM compound): 15%
Structure (SMILES): CNC(Cn1c2c(c3cc(C)ccc31)CN(C)CC2)c1ccc(F)cc1 (single isomer, unassigned) [II-12b, 2-(2,8-dimethyl-3,4-dihydro-1H-pyrido[4,3-b]indol-5(2H)-yl)-1-(4-fluorophenyl)-N-methyl ethanamine]

Percentage inhibition of ligand binding, Adrenergic α2B [1, 4]: 74%
Percentage inhibition of ligand binding, Adrenergic α1B [2, 11]: 37%
Percentage inhibition of ligand binding, Adrenergic α2A [3, 10]: 25%
Structure (SMILES): CN1CCc2c(c3cc(Cl)ccc3n2CC(O)c2cccnc2)C1 (single isomer, unassigned) [7b]

Percentage inhibition of ligand binding, Adrenergic α2B [1, 4]: 86%
Percentage inhibition of ligand binding, Adrenergic α1B [2, 11]: 14%
Percentage inhibition of ligand binding, Adrenergic α2A [3, 10]: 17%
Structure (SMILES): CN1CCc2c(c3cccc(Br)c3n2CC(O)c2ccncc2)C1 (single isomer, unassigned) [48b]

inhibition at 0.03 µM ([1]; 0.03 μM compound, read-out: Percentage inhibition of ligand binding, Adrenergic α2B): 104%
inhibition at 0.1 µM ([2]; 0.1 μM compound, read-out: Percentage inhibition of ligand binding, Adrenergic α1B): 98%
inhibition at 0.1 µM ([3]; 0.1 μM compound, read-out: Percentage inhibition of ligand binding, Adrenergic α2A): 66%
Structure (SMILES): Cc1cnc2c(c1)c1c(n2CCc2ccc(F)cc2)CCN2CCCC12 (stereo not drawn) [compound 336]

Percentage inhibition of ligand binding, Adrenergic α2B [1, 4]: 37%
inhibition at 0.1 µM [2, 5]: 12%
inhibition at 0.1 µM [3, 6]: 10%
Structure (SMILES): CN1CCc2c(c3ccc(Cl)cc3n2CC(O)c2ccncc2)C1 (single isomer, unassigned) [53a, 2-(7-chloro-2-methyl-3,4-dihydro-1H-pyrido[4,3-b]indol-5(2H)-yl)-1-(pyridin-4-yl)ethanol]

Percentage inhibition of ligand binding, Adrenergic α2B (0.03 μM) [1, 7]: 0%
Percentage inhibition of ligand binding, Adrenergic α1B (0.1 μM) [2, 8]: 2%
Percentage inhibition of ligand binding, Adrenergic α2A (0.1 μM) [3, 9]: 3%
Structure (SMILES): Cc1ccc2c(c1)c1c(n2CC(C)(OCC(=O)O)c2cccnc2)CCN(C)C1 (single isomer, unassigned) [V-14b, 2-((1-(2,8-dimethyl-3,4-dihydro-1H-pyrido[4,3-b]indol-5(2H)-yl)-2-(pyridin-3-yl)propan-2-yl)oxy)acetic acid]

Structure (SMILES): Cc1ccc2c(c1)c1c(n2CC(OC(=O)C(C)(C)C)c2ccncc2)CCN(C)C1 (single isomer, unassigned) [130b]
Ki ([1]; read-out: Ki α2B): 2.52 nM
Percentage inhibition of ligand binding, Adrenergic α1B (0.03 μM) ([2]; compound at 0.03 μM, [3H]Prazosin, repeat datapoints each shown, 0.03 µM): 2%
Percentage inhibition of ligand binding, Adrenergic α1B (0.1 μM) [2, 8]: 8% and 11%
Ki [3]: 72.6 nM
Percentage inhibition of ligand binding, Adrenergic α2A (0.03 μM) ([3]; compound at 0.03 μM, [3H]MK-912, repeat datapoints each shown, 0.03 µM): 13%
Percentage inhibition of ligand binding, Adrenergic α2A (0.1 μM) [3, 9]: 31%

inhibition at 0.03 µM [1, 13]: 103%
inhibition at 0.1 µM [2, 12]: 100%
inhibition at 0.1 µM [3, 14]: 94%
Structure (SMILES): C/C(=C\n1c2c(c3cc(C)ccc31)C1CCCN1CC2)c1ccc(F)cc1 (single isomer, unassigned) [194b, 7-(2-(4-fluorophenyl)prop-1-enyl)-10-methyl-2,3,5,6,7,11c-hexahydro-1H-indolizino[7,8-b]indole]

inhibition at 0.03 µM [1, 13]: 16%
inhibition at 0.1 µM [2, 12]: 12%
Percentage inhibition of ligand binding, Adrenergic α2A (0.1 μM) [3, 9]: −4%
Structure (SMILES): Cc1ccc2c(c1)c1c(n2CC(C)(N)c2cccnc2)CCN(C)C1 (single isomer, unassigned) [149a, 1-(2,8-dimethyl-3,4-dihydro-1H-pyrido[4,3-b]indol-5(2H)-yl)-2-(pyridin-3-yl)propan-2-amine]

Percentage inhibition of ligand binding, Adrenergic α2B [1, 4]: 54%
inhibition at 0.1 µM [2, 5]: 23%
Percentage inhibition of ligand binding, Adrenergic α2A [3, 10]: −4%
Structure (SMILES): CN1CCc2c(c3cccc(Cl)c3n2CC(O)c2ccncc2)C1 (single isomer, unassigned) [45a]
